Measurements reported in patent publication US11667646B2, “Solid state forms of rucaparib and of rucaparib salts” (ASSIA CHEMICAL INDUSTRIES LTD., priority 2017, dated 2023).
Counter-ions that a name gives are not always drawn.

How the values were obtained:
[1] = API mass increase of the salt vs. the free base
[2] = Kinetic solubility at various pH ranges; format: physicochemical
Compressibility = format: physicochemical
[3] = Solid state stability at controlled relative humidity, room temperature, open Petri dish; format: physicochemical
Hygroscopicity = format: physicochemical
[4] = 20-100% relative humidity (RH) at room temperature (RT) in open Petri dish

Compound | API mass increase of the salt vs. the free base [1] | kinetic solubility [2] | compressibility properties (Compressibility) | period of stability [3, 4] | hygroscopicity (Hygroscopicity) | period of stability ([3]; 20-40% relative humidity (RH) at room temperature (RT) in open Petri dish)
CNCc1ccc(-c2[nH]c3cc(F)cc4c3c2CCNC4=O)cc1.Cc1ccc(S(=O)(=O)O)cc1 [8-fluoro-2-{4-[(methylamino)methyl]phenyl}-1,3,4,5-tetrahydro-6H-azepino[5,4,3-cd]indol-6-oneTosylate] | 53% | improved | good | at least 1 month | non-hygroscopic | 
CNCc1ccc(-c2[nH]c3cc(F)cc4c3c2CCNC4=O)cc1 [Crystalline Form C of Rucaparib base, 8-fluoro-2-{4-[(methylamino)methyl]phenyl}-1,3,4,5-tetrahydro-6H-azepino[5,4,3-cd]indol-6-one] | no API mass increase | improved |  | at least 1 month | non-hygroscopic | 
CNCc1ccc(-c2[nH]c3cc(F)cc4c3c2CCNC4=O)cc1 [Crystalline Form I of Rucaparib base, 8-fluoro-2-{4-[(methylamino)methyl]phenyl}-1,3,4,5-tetrahydro-6H-azepino[5,4,3-cd]indol-6-one] | no API mass increase | improved |  | at least 1 month | non-hygroscopic | 

The next lines start with the values.

API mass increase of the salt vs. the free base [1] | kinetic solubility [2] | compressibility properties (Compressibility) | period of stability [3, 4] | hygroscopicity (Hygroscopicity) | period of stability ([3]; 20-40% relative humidity (RH) at room temperature (RT) in open Petri dish) | Compound
no API mass increase |  |  |  |  | at least 1 month | CNCc1ccc(-c2[nH]c3cc(F)cc4c3c2CCNC4=O)cc1 [Crystalline Form II of Rucaparib base, 8-fluoro-2-{4-[(methylamino)methyl]phenyl}-1,3,4,5-tetrahydro-6H-azepino[5,4,3-cd]indol-6-one]
9% | improved | good | at least 1 month | non-hygroscopic |  | CNCc1ccc(-c2[nH]c3cc(F)cc4c3c2CCNC4=O)cc1 [Crystalline Form IV of Rucaparib Hemi-Edisylate] [8-fluoro-2-{4-[(methylamino)methyl]phenyl}-1,3,4,5-tetrahydro-6H-azepino[5,4,3-cd]indol-6-one Hemi-Edisylate]
72% |  |  |  |  |  | CNCc1ccc(-c2[nH]c3cc(F)cc4c3c2CCNC4=O)cc1 [Rucaparib camsylate, 8-fluoro-2-{4-[(methylamino)methyl]phenyl}-1,3,4,5-tetrahydro-6H-azepino[5,4,3-cd]indol-6-one ((1S,4R)-7,7 dimethyl-2-oxobicyclo[2.2.1]hept-1-yl) methane-sulfonic acid salt, reference compound]
